Earlier results in US8691290B2 (priority 2006, dated 2014).

Test system: polymorphonuclear leukocytes (PMN) cells
Details: S. aureus with various concentrations of PVP-I, 6 hours

polyvinylpyrolodone-iodine [PVP-I]
TNF-α release from PMN cells: released increasing amounts of TNF-α as PVP-I is diluted
